Reference: patent US6602914B2, “Compounds and methods for the inhibition of the expression of VCAM-1” (AtheroGenics, Inc., priority 1997, dated 2003)

Key:
ApoB/HepG2 = experiment: Lipid Screen & IC50 Determination Protocol: ApoB ELISA of HEPG2 media; type: cell-based, human; conditions: HEPG2, 24 hours; for IC50: bare number = IC50, NE not defined in the patent, read-out: ApoB/HepG2 IC50 or % inhibition at [μM]: IC50
Experimental: HEPG2 cell was started in 10 ml of MEM, 10% FBS, 1 mM Sodium Pyruvate. The cells were incubated in a tissue culture incubator. The cells were split into 4×96-wells plate in MEM, 10% FBS, 1 mM Sodium Pyruvate and allowed to grow to about 50% confluency and then removed.
The cells were treated with the desired concentration of compounds in 100 μl DMEM, 1% RSA for 24 hours. The compounds are dissolved in DMSO.
On the same day, 4×96-wells NuncImmunoSorb plate is coated with 100 μl of mouse anti-human ApoB monoclonal 1D1 (1:1000 dilution in 1×PBS, pH 7.4). The coating is allowed overnight.
The coated plate is washed 3 times with 1×PBS, pH 7.4, −0.05% Tween 20. 100 μl of the standards is added to the selected wells. ApoB standards are prepared at 6.25, 3.12, 1.56, 0.78, 0.39 ng, and each concentration is done in triplicates. For samples:
90 μl of 1×PBS, pH 7.4, −0.05% Tween 20 is added to each well corresponding to the sample. 10 μl of media is transferred from the treated HEPG2 plates to the ApoB ELISA plate. The plate is incubated at room temperature for 2 hours, rocking gently.
Wash the coated plate 3× with 1×PBS, pH 7.4, −0.05% Tween 20. Add 100 μl of sheep anti-human ApoB polyclonal from Boehringer Mannheim. (1:2000 dilution in 1×PBS, pH 7.4, −0.05% Tween 20) from Boehringer Mannheim. Incubate at room temperature for 1 hour, rocking gently. Wash the coated plate 3× with 1×PBS, pH 7.4, −0.05% Tween 20. Add 100 μl of rabbit anti-sheep IgG (1:2000 dilution in 1×PBS, pH 7.4, −0.05% Tween 20). Incubate at room temperature for 1 hour, rocking gently. Wash the coated plate 3× with 1×PBS, pH 7.4, −0.05% Tween 20. Add 100 μl of substrate (10 ml of distilled water, 100 μl of TMB (10 mg/ml), and 1 μl of hydrogen peroxide). Allow color to emerge and stop reaction with 25 ul of 8N sulfuric acid. Wells are read with MicroPlate Reader @ […]. Graph accumulation of ApoB in media as a percentage of control for each sample and their concentration. A determination of IC50 is obtained from the graph.
The degree of inhibition of the compounds of formulas (I) and (II) was determined by the assays described in Examples 62-64.

VCAM-1 = VCAM-1 Assay: TNF-stimulated cells, cell-surface ELISA; type: cell-based; conditions: for IC50: bare number = IC50, NE not defined in the patent, read-out: VCAM-1 IC50 or % inhibition at [μM]: IC50
Experimental: Two to four confluent P150 plates are trypsinized and the cells transferred to a 50 mL conical centrifuge tube. The cells are pelleted, resuspended, and counted using the trypan blue exclusion method.
Cells are resuspended at a concentration of 36,000 cells/mL and 1 mL is aliquoted per well.
Cells are split into 24 well tissue culture plates. The cells in each well should be approximately 90-95% confluent by the following day. Cells should not be older than passage 8.
Compounds are initially screened at 50 μM and 10 μM. A 50 mM stock solution for each compound is prepared in culture medium. The stock solution is diluted to 5 mM and 1 mM. When 10 μL of the 5 mM solution is added to the well (1 mL medium/well), the final concentration will be 50 μM. Adding 10 μL of the 1 mM solution to the well will give a final concentration of 10 μM.
Compounds which will not go into solution in culture medium are resuspended in DMSO at a concentration of 25 mM. The stock solution is then diluted to the final concentration in culture medium. The old medium is aspirated and 1 mL of the new medium with the compound is added. For example, if the final concentration is 50 μM, the 2 μL of the 25 mM stock is added per mL of culture medium. The […] solution is diluted for lower concentrations.
The compounds are added to the plate (each compound is done in duplicate). One plate is done for VCAM expression and one plate is done for ICAM expression.
Immediately after the compounds are added, TNF is added to each well. 100 units/mL TNF is usually added to each well. Since each lot of TNF varies in the number of units, each new lot is titrated to determine the optimum concentration. Therefore this concentration will change. If 100 units/mL is bing used, dilute the TNF to 10 units/μL and add 10 μL to each well.
The plates are incubated at 37° C., 5% CO2 overnight (approximately 16 hours). The next day the plates are checked under the microscope to see if there are any visual signs of toxicity. Records are made of any cell death, debris, or morphology changes, as well as insoluble compounds (particulate or turbity).
In order to assess MCP-1, the media (500 μL) is saved and frozen at −70° C. Wash cells once with roughly 1 ml/well of Hanks Balance Salt Solution (HBSS) or PBS. Gently empty the wash solution and then tap the plate onto paper towels. Add either 250 μL/well of HBSS +5% FCCS to the plank (no primary antibody wells) or 250 μL/well of primary antibody diluted in HBSS +5% FCS. Incubate for 30 minutes at 37° C. Wash the wells twice with 0.5 mL/well HBSS or PBS and gently tap the plates onto paper towels after the last wash. Add 250 μL/well of HRP-conjugated second antibody diluted in HBSS +5% FCS to every well including the blank wells (no primary antibody). Incubate at 37° C. for 30 minutes. Wash the wells four times with 0.5 mL/well HBSS or PBS and gently tap the plates onto paper towels after the last wash. Add 250 μL/well of substrate solution. Incubate at room temperature in the dark until there is adequate color development (blue). Note the length of time incubation was performed (typically 15-30 minutes). Add 75 μL/well stopper solution (8N sulfuric acid), and read A450 nm.

Molecule: 1,2,3-Butanetriol, 4-[4-[[1-[[3,5-bis(1,1-dimethylethyl)-4-hydroxyphenyl]thio]=1-methylethyl]thio]-2,6-bis(1,1-dimethylethyl)phenoxy]-2-hydroxypropyl]-
- ApoB/HepG2 % inhibition at [μM] (ApoB/HepG2; at 1 μM): 6% at 1

Molecule: 2,6-di-tert-butyl-4-thio(3′,5′-ditert-butyl,4′-hydroxy butanedioic acid ester)phenol
- IC50 (VCAM-1): 6 µM

Molecule: CC(C)(Sc1cc(C(C)(C)C)c(O)c(C(C)(C)C)c1)Sc1cc(C(C)(C)C)c(OCC(O)CO)c(C(C)(C)C)c1 (stereo not shown) [1,2-Propanediol, 3-[4-[[1-[[3,5-bis(1,1-dimethylethyl)-4-hydroxyphenyl]thio]-1-methylethyl]thio]-2,6-bis(1,1-dimethylethyl)phenoxy]-]
- inhibition at 15 µM (ApoB/HepG2; Homo sapiens, at 15 μM): 40%

Molecule: COc1c(C(C)(C)C)cc(SCc2ccc(C(F)(F)F)cc2)cc1C(C)(C)C [2,6-di-tert-butyl-1-methoxy-4-thio(4′-trifluoromethyl)benzyl)benzene]
- IC50 (ApoB/HepG2): < 10 µM

Molecule: CC(=O)OC(C)(C)CSc1cc(C(C)(C)C)c(O)c(C(C)(C)C)c1 [2,6-di-tert-butyl-4-thio(2′-acetoxy,2′-methylpropyl)phenol]
- IC50 (VCAM-1): 50 µM

Molecule: CN(C)CCCSc1cc(C(C)(C)C)c(O)c(C(C)(C)C)c1 [2,6-di-tert-butyl-4-thio(3′-(dimethylamino)propyl))phenol]
- VCAM-1 % inhibition at [μM] (VCAM-1; at 50 μM): 30% at 50

Molecule: CCCCC(OC(C)=O)Sc1cc(C(C)(C)C)c(O)c(C(C)(C)C)c1 (stereo not shown) [2,6-di-tert-butylthio((1′-(acetoxy))pentyl)phenol]
- IC50 (ApoB/HepG2): 30 µM

Molecule: CC(C)(Sc1cc(C(C)(C)C)c(O)c(C(C)(C)C)c1)Sc1cc(C(C)(C)C)c(OC(=O)c2ccc([N+](=O)[O-])o2)c(C(C)(C)C)c1 [2-Furancarboxylic acid, 5-nitro-, 4-[[1-[[3,5-bis(1,1-dimethylethyl)-4-hydroxyphenyl]thio]-1-methylethyl]thio]-2,6-bis(1,1-dimethylethyl)phenyl ester]
- inhibition at 15 µM (ApoB/HepG2; Homo sapiens, at 15 μM): 17%

Molecule: COc1c(C(C)(C)C)cc(SC(C)(C)Sc2cc(C(C)(C)C)c(OC(=O)CCC(=O)O)c(C(C)(C)C)c2)cc1C(C)(C)C [Butanedioic acid, mono[4-[[1-[[3,5-bis(1,1-dimethylethyl)-4-methoxyphenyl]thiol]1-methylethyl]thiol-2,6-bis(1,1-dimethylethyl)phenyl] ester]
- ApoB/HepG2 % inhibition at [μM] (ApoB/HepG2; at 15 μM): 89% at 15

Molecule: CC(C)(Sc1cc(C(C)(C)C)c(O)c(C(C)(C)C)c1)Sc1cc(C(C)(C)C)c(OCCCC(=O)O)c(C(C)(C)C)c1 [Butanoic acid, 4-[4-[[1-[[3,5-bis(1,1-dimethylethyl)4-hydroxyphenyl]thio]-1-methylethyl]thio]-2,6-bis(1,1-dimethylethyl)phenoxy]-]
- inhibition at 15 µM (ApoB/HepG2; Homo sapiens, at 15 μM): 77%

Molecule: Cc1cc(SC(C)(C)Sc2cc(C(C)(C)C)c(O)c(C(C)(C)C)c2)cc(C)c1OCCCC(=O)O [Butanoic acid, 4-[4-[[1-[[3,5-bis(1,1-dimethylethyl)-4-hydroxyphenyl]thio]-1-methylethyl]thio]2,6-dimethylphenoxy]-]
- inhibition at 15 µM (ApoB/HepG2; Homo sapiens, at 15 μM): 41%

Molecule: CC(C)(Sc1ccc(OCCCC(=O)O)cc1)Sc1cc(C(C)(C)C)c(O)c(C(C)(C)C)c1 [Butanoic acid, 4-[4-[[1-[[3,5-bis(1,1-dimethylethyl)-4-hydroxyphenyl]thio]-1-methylethyl]thio]phenoxy]-]
- inhibition at 15 µM (ApoB/HepG2; Homo sapiens, at 15 μM): 47%

Molecule: CC(C)(Sc1cc(C(C)(C)C)c(O)c(C(C)(C)C)c1)Sc1cc(C(C)(C)C)c(OC(=O)CCCO)c(C(C)(C)C)c1 [Butanoic acid, 4-hydorxy-, 4-[[1-[[3,5-bis(1,1-dimethylethyl)-4-hydroxyphenyl]thio]-1-methylethyl]thio]-2,6-bis(1,1-dimethylethyl)phenyl ester]
- ApoB/HepG2 % inhibition at [μM] (ApoB/HepG2; at 15 μM): 81% at 15

Molecule: CC(C)(CO)CC(=O)Oc1c(C(C)(C)C)cc(SC(C)(C)Sc2cc(C(C)(C)C)c(O)c(C(C)(C)C)c2)cc1C(C)(C)C [Butanoic acid, 4-hydroxy-3,3-dimethyl-, 4-[[1-[[3,5-bis(1,1-dimethylethyl)-4-hydroxyphenyl]thio]-1-methylethyl]thio]-2,6-bis(1,1-dimethylethyl)phenyl ester]
- inhibition at 15 µM (ApoB/HepG2; Homo sapiens, at 15 μM): 90%

Molecule: CC(C)(Sc1cc(C(C)(C)C)c(O)c(C(C)(C)C)c1)Sc1cc(C(C)(C)C)c(OCC(=O)N[C@@H](CCC(=O)O)C(=O)O)c(C(C)(C)C)c1 [Glutamic acid, N-[[4-[[1-[[3,5-bis(1,1-dimethylethyl)-4-hydroxyphenyl]thio]-1-methylethyl]thio]-2,6-bis(1,1-dimethylethyl)phenoxy]acetyl]-]
- inhibition at 15 µM (ApoB/HepG2; Homo sapiens, at 15 μM): 94%

Molecule: CC(C)(Sc1cc(C(C)(C)C)c(O)c(C(C)(C)C)c1)Sc1cc(C(C)(C)C)c(OC(=O)CN)c(C(C)(C)C)c1 [Glycine, 4-[[1-[[3,5-bis(1,1-dimethylethyl)-4-hydroxyphenyl]thio]-1-methylethyl]thio]-2,6-bis(1,1-dimethylethyl)phenyl ester]
- inhibition at 5 µM (ApoB/HepG2; Homo sapiens, at 5 μM): 30%

Molecule: CC(C)(Sc1cc(C(C)(C)C)c(O)c(C(C)(C)C)c1)Sc1cc(C(C)(C)C)c(OCC(O)CNCC(=O)O)c(C(C)(C)C)c1 (stereo not shown) [Glycine, N-[3-[4-[[1-[(3,5-bis(1,1-dimethylethyl)-4-hydroxyphenyl]thio]-1-methylethyl]thio]-2,6-bis(1,1-dimethylethyl)phenoxy]2-hydroxypropyl]-]
- inhibition at 15 µM (ApoB/HepG2; Homo sapiens, at 15 μM): 45%

Molecule: CC(C)(Sc1cc(C(C)(C)C)c(O)c(C(C)(C)C)c1)Sc1cc(C(C)(C)C)c(OCC(=O)NCC(=O)O)c(C(C)(C)C)c1 [Glycine, N-[[4-[[1-[[3,5-bis(1,1-dimethylethyl)-4-hydroxyphenyl]thio]-1,methylethyl]thio]-2,6-bis(1,1-dimethylethyl)phenoxylacetyl]-]
- ApoB/HepG2 % inhibition at [μM] (ApoB/HepG2; at 15 μM): 83% at 15

Molecule: CC(C)(Sc1cc(C(C)(C)C)c(O)c(C(C)(C)C)c1)Sc1cc(C(C)(C)C)c(OC(=O)CCC(=O)O)c(C(C)(C)C)c1.N=C(N)NCCC[C@H](N)C(=O)O [L-Arginine, mono[4-[[1-[[3,5-bis(1,1-dimethylethyl)-4-hydroxyphenyl]thio]-1-methylethyl]thio]-2,6-bis(1,1-dimethylethyl)phenyl butanedioate]]
- ApoB/HepG2 % inhibition at [μM] (ApoB/HepG2; at 15 μM): 93% at 15
